Results as given in US20080242594A1, “Methods for Promoting Stem Cell Proliferation and Survival” (priority 2005, published 2008).

What was measured:
adult rats = assay: Intraventricular infusion in normal adult rats, BrdU labeled cells; format: in vivo, rat; conditions: for concentration in the pump at which maximal effects were achieved: constant FGF2 2.5 μg/ml
Experimental: In-vivo Experiments: All drugs were infused over one week using an Alzet osmotic pump (model 2001 delivering at a rate of 1 μl/hr for seven days). Briefly, an intracerebral cannula connected to the pump was inserted into the right lateral ventricle using the following stereotaxic coordinates: bregma AP +0, Lateral −1.5 mm dorso-ventral 3.3 mm. Animals received IP injection of the tracer BrdU (50 mg/kg) every 12 hours for 5 days beginning on day one post-operatively to label dividing cells.
Immuno-positive cells were analyzed by confocal microscopy counted using a non-biased system on slides obtained from homologous coronal slices containing the infarct of each animal at the position between +0.2 and −3.8 mm from the center of the bregma according to stereotaxic coordinates. Cells were enumerated in […] regions of interest, on both the ipsilateral and contralateral hemispheres (to cannula, or cannula and ischemic focus): subventricular zone (SVZ), corpus callosum and white matter and the peri-infarct cortex.
The effect of intraventricular administration of Delta-4 was studied in adult rats. As in other tissues, the numbers of stem cells in the adult CNS are precisely controlled. […] In vivo manipulations were designed to ask if Notch ligands can act alone or substantially alter the effect of FGF2 on the numbers of proliferating cells in the SVZ of the normal brain. Animals (N=5-6 per treatment) were fitted with a mini-osmotic pump administering artificial cerebrospinal fluid (ACSF, vehicle), FGF2, Delta-4, or a combination FGF2+Delta-4 for one week into the ventricles of three-month old rats. Animals were also given twice-daily injections of bromodeoxyuridine (BrdU) from post-op days two to six to label cells generated during this time window. Two groups of animals were analyzed at day 7 and day 45 relative to the initiation of protein delivery. Delta-4 doses were chosen to provide a roughly equal concentration in the rat adult cerebrospinal fluid as in the cell culture medium of our in vitro experiments.

[1] = test system: murine E13.5 cortical stem cell cultures; assay: Real-time imaging of lineage, death events and cell cycle; format: cell-based, mouse; conditions: from 4 hours after plating, compared to controls
Experimental: FIGS. 1a-1f are a set of images showing that Notch ligands stimulate survival in CNS stem cell (CNS SC) cultures. FIG. 1a is a bar graph […] the effect of Notch activation by Jagged-1, Delta-4, or combination in the presence of FGF2 for 5 days on plating efficiency, colony size, and BrdU incorporation (following a 4 hour BrdU pulse), over control treatments (FGF2 alone) FIG. 1b is a graph showing lineage and death events in murine E13.5 cortical stem cell cultures in the presence of FGF2 or FGF2 and Delta-4 (“D4”), D114 inhibits cell death in real-time cell lineage experiments (“x” marks time of death). CNS stem cells from embryonic day 13.5 mouse cerebral cortex were plated following one passage and visualized in real-time for 36 hours (images were taken every 2 min). Lineage and death events are represented. Cells were cultured in a closed gas chamber at 37° C. and images of selected fields were taken every two minutes. FIG. 1c is a line graph showing accumulative real-time imaging representation of death even times over 36 hours in culture with or without Delta-4. […] Cell cycle durations for the first two divisions are shown. FIG. 1e is a bar graph showing Delta-4 treatment of CNS SC cultures replaced the requirement for insulin in the medium in a plating efficiency assay. […] In the graphs, data represent Means ±standard deviation (SD). […]

Delta-4: soluble Notch ligand Delta-4 (1389-D4) from R&D
number of BrdU+ cells in SVZ, corpus callosum and cerebral cortex (adult rats; 45 days, relative to FGF2 treated animals): increased number of BrdU+ cells
concentration in the pump at which maximal effects were achieved (adult rats; contralateral site): ~4.2 µg/mL
number of proliferating cells / BrdU incorporation (adult rats; day 7, contralateral site): induced significant increases in BrdU incorporation
number of BrdU labeled cells in SVZ, corpus callosum and cortex (adult rats; day 7, hemisphere ipsilateral to the cannula): increased the number of BrdU labeled cells
concentration in the pump at which maximal effects were achieved (adult rats; ipsilateral site): approximately 0.42 μg/ml
death events [1]: very few death events were observed
